Reference: US10519099B2, “Cystobactamides” (priority 2014, dated 2019)

Target: T1, E. coli gyrase (Escherichia coli, UniProt P0AES4+P0AES6)
T1 construct: purchased Inspiralis, Norwich, UK
Assay: E. coli gyrase DNA supercoiling assay
Format: biochemical
Details: read-out: IC50 Ec gyrase (sc)
Method: To test the anti-gyrase activity of cystobactamides, commercial E. coli and P. aeruginosa gyrase supercoiling kits (Inspiralis, Norwich, UK) were used. For standard reactions 0.5 μg relaxed plasmid were mixed with 1 unit gyrase in 1× reaction buffer (see kit manual) and incubated for 30 min at 37° C. The reactions were quenched by the addition of DNA gel loading buffer containing 10% (w/v) SDS. The samples were separated on 1% (w/v) agarose gels and DNA was visualized using EtBr. All natural products stock solutions and dilutions were prepared in 100% DMSO and added to the supercoiling reactions giving a final DMSO concentration of 2% (v/v).

T1 sequence (P0AES4 whole entry, one chain of several): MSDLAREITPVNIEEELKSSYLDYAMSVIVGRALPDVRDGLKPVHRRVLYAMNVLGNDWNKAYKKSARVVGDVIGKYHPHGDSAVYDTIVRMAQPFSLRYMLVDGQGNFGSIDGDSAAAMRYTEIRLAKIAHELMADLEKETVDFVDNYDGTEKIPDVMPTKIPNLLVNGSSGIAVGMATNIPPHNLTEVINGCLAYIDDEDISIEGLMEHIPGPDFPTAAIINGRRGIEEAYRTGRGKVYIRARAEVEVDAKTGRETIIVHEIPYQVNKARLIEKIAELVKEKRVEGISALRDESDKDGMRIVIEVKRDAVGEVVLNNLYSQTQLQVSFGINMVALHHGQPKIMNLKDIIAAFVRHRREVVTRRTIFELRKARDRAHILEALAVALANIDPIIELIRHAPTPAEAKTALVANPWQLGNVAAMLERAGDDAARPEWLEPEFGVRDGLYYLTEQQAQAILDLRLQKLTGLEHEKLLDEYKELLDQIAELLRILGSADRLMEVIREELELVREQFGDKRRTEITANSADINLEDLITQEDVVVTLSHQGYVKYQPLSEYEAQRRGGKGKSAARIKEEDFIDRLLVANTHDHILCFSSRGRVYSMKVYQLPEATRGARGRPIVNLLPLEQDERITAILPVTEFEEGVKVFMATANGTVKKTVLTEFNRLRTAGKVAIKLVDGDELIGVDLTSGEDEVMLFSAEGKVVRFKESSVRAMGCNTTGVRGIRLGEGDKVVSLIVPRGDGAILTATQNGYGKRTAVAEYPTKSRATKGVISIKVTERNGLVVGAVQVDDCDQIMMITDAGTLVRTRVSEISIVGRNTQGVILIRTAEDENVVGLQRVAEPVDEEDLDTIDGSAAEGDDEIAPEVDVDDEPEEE

COC(C(N)=O)C(NC(=O)c1ccc(NC(=O)c2ccc([N+](=O)[O-])cc2)cc1)C(=O)Nc1ccc(C(=O)Nc2ccc(C(=O)Nc3ccc(C(=O)O)cc3OC(C)C)c(O)c2OC(C)C)cc1 (stereo not shown) [Cys 919-2]
IC50: 0.67 µM
